Source: US20230247992A1, “ARTHROPOD CONTROL COMPOSITION” (Firmenich SA, priority 2020, published 2023)

How the values were obtained:
Aedes aegypti [1] = experiment: in vitro Warm Body assay, substance applied on glass Petri dish on top of the warm body (deterrence and repellence); format: in vivo
Protocol: (§1) The controlling effect, repellence & spatial repellence, according to the present invention is determined by testing the Warm Body assay against the yellow fever mosquito, Aedes aegypti Rockefeller strain. […] Observations of controlling efficacy were made on host-seeking females of uniform age, 5 to 10 days old selected as mentioned in the publication mentioned hereinabove. Tested hungry females had access to 10% sugar solution but were not blood-fed. Further information is provided in the accompanying examples.
(§2) The published protocol has been adapted in not manually counting the landing mosquitoes but automatically using an automatic counting software, the switch from Anopheles gambiae to A. aegypti led to a decrease of mosquitoes’ number placed in the tested cage due to the size difference (i.e. 30 mosquitoes instead of 50) and to an increase of lighting as A. aegypti is a diurnal mosquitoes (i.e. 150 lux instead of 4 lux). Further information is provided in the accompanying examples.,
(§3) The controlling effect of the compositions according to the present invention was assessed using an adapted Warm Body assay as defined in Kröber T, Kessler S, Frei J, Bourquin M, Guerin PM. 2010. An in vitro assay for testing mosquito controlling compounds employing a warm body and carbon dioxide as a behavioral activator. J Am Mosq Control Assoc. 26:381-386. In this in-vitro assay the number of mosquito landing on a warm body, simulating an attractive host treated with the tested stimuli, was measured in order to assess the repellence effect.
as §2, with “to Aedes” for “to A.”, “lux).” for “lux). Further information is provided in the accompanying examples.,”
(§4) In addition, since the inventors were interested by assessing spatial repellence added or not to a deterrent effect, the substance was applied using two different technics. Whether, as in Kröber et al. (2010), both deterrent and repellent effect were investigated (i.e. similar effect than most body care applications such as lotion) and the substances was applied on a sandblasted glass Petri dish placed on top of the warm body. Whether only the spatial repellence was investigated (i.e. similar effect than most home care applications such as liquid electric dispenser) and the substance was introduced in the cage space thanks to a forced evaporation system as described in Chappuis C J-F, Niclass Y, Vuilleumier C, Starkenmann C. 2015. Quantitative Headspace Analysis of Selected Odorants from Latrines in Africa and India. Environ. Sci. Technol. 49:6134-6140.
(§5) As stated in Kröber et al. (2010), selected 10-12 days old hungry females, that had ad libitum access to 10% sugar solution but were not blood-fed, were selected for the assay.
On the sandblasted glass Petri dish covering the warm body (28.3 cm^2), 100 µL of the substances diluted at different concentrations in ethanol was applied. The number of mosquito landing on the warm body was counted for each stimuli, N,N-diethyl-3-methylbenzamide (DEET) and ethyl 3-[acetyl(butyl)amino]propanoate (IR3535) being used as benchmarks and pure ethanol as control.

Aedes aegypti [2] = experiment: in vitro Warm Body assay, substance introduced in the cage air by forced evaporation (spatial repellence); format: in vivo
Protocol: as §1, §2, §3
as §2, with “to Aedes” for “to A.”, “lux).” for “lux). Further information is provided in the accompanying examples.,”
as §4, §5
The forced evaporation system allows to fill the volume of the cage with stimuli tested, (2-methyl-4-oxo-3-prop-2-ynylcyclopent-2-en-1-yl) 2,2-dimethyl-3-(2-methylprop-1-enyl)cyclopropane-1-carboxylate (prallethrin) and N,N-diethyl-3-methylbenzamide (DEET) being used as benchmarks. In order to limit potential dead volumes in the cage, five flushes of the cage were made before starting the 2 minutes test during which the number of mosquito landings was counted.

Aedes aegypti [3] = experiment: in vivo Arm-in-cage assay on human volunteers; settings: for decrease of the percentage of mosquito landing on the arm: 20% applied on arm skin (600 cm^2), three volunteers
Protocol: The controlling effect, repellence & spatial repellence, according to the present invention is also determined according to an arm in the box method adapted from the WHO Guidelines for efficacy testing of mosquito repellents for human skin (WHO/CDS/NTD/WHOPES/2009.4). […] Further information is provided in the accompanying examples.
The Arm in the box method was adapted from the WHO Guidelines for efficacy testing of mosquito repellents for human skin (WHO/CDS/NTD/WHOPES/2009.4). The readiness of 100 hungry female mosquitoes A. aegypti to probe is assessed by inserting an untreated arm into the cage (40×40×40 cm) for 30 seconds (negative control) three times (once at the beginning, once at the fourth hour and once at the eighth hour), to determine probing activity. Then, the product is applied onto the skin of the forearm of a human volunteer (1 mL per 600 cm^2) and after 5 minutes, this arm is inserted into the cage and exposed for 3 minutes. The assay take place in temperature (27±2° C.) and humidity (80±10%RH) regulated room on three different volunteers.
Arm-in-cage test is a compulsory assay for most biocide registrations to assess the efficacy of a substance. It is a very challenging test as the treated arm of a volunteer is being placed in a space containing a density of […] blood hungry mosquitoes / m^3 of air.

Ixodes ricinus = experiment: whole plant or invertebrate; format: in vivo; settings: for pest or weed control at 1 µg/cm2, 1 µg/cm2 / pest or weed control at 5 µg/cm2, 5 µg/cm2 / pest or weed control at 25 µg/cm2, 25 µg/cm2: Ixodes ricinus, read-out: mean percentage of ticks affected; for tick response compared with the benchmark IR3535: concentrations tested
[4] = 0.04% in ethanol, ethanol control 59.3±6.9 landings
[5] = 1% in ethanol, ethanol control 59.3±6.9 landings
[6] = […] in ethanol, ethanol control 59.3±6.9 landings
[7] = 0.0017 µg/L air, without substance 54.7±3.2
[8] = 0.017 µg/L air, without substance 54.7±3.2
[9] = 0.17 µg/L air, without substance 54.7±3.2
[10] = 1.7 µg/L air, without substance 54.7±3.2
[11] = 17 µg/L air, without substance 54.7±3.2

`COc1cc(C=O)ccc1O` [4-hydroxy-3-methoxybenzaldehyde] was tested, and the “number of mosquitoes landing within 2 minutes on the warm body” value (Aedes aegypti [1]; [4]) was 9.0, the “number of mosquitoes landing within 2 minutes on the warm body” value (Aedes aegypti [1]; [5]) was 3.0 and the “number of mosquitoes landing within 2 minutes on the warm body” value (Aedes aegypti [1]; [6]) was 19.0. The “number of mosquitoes landing within 2 minutes on the warm body, air in the cage saturated with stimulus” value (from here on “number … with stimulus”) (Aedes aegypti [2]; [7]) was 17.0, the “number … with stimulus” value (Aedes aegypti [2]; [8]) was 9.0 and the “number … with stimulus” value (Aedes aegypti [2]; [9]) was 1.5. For the same compound, the “number … with stimulus” value (Aedes aegypti [2]; [10]) was 3.5, the “number … with stimulus” value (Aedes aegypti [2]; [11]) was 1.0 and the “decrease of the percentage of mosquito landing on the arm” value (“decrease of the percentage … on the arm” for short) (Aedes aegypti [3]; 5 min post-application) was 82±5.2%. For the same compound, the “decrease of the percentage … on the arm” value (Aedes aegypti [3]; 1 h post-application) was 78±2.6%, the “decrease of the percentage … on the arm” value (Aedes aegypti [3]; 2 h post-application) was 66±8.0% and the “decrease of the percentage … on the arm” value (Aedes aegypti [3]; 3 h post-application) was 61±6%. The “decrease of the percentage … on the arm” value (Aedes aegypti [3]; 4 h post-application) was 63±2%, the pest or weed control at 1 µg/cm2, 1 µg/cm2 (Ixodes ricinus) was 14% and the pest or weed control at 5 µg/cm2, 5 µg/cm2 (Ixodes ricinus) was 44%. The pest or weed control at 25 µg/cm2, 25 µg/cm2 (Ixodes ricinus) was 73%.

In the case of `CCCCCC1CCCC(=O)O1` (stereo not shown) [6-pentyloxan-2-one], the “number of mosquitoes landing within 2 minutes on the warm body” value (Aedes aegypti [1]; 0.04% in ethanol, ethanol control 67.0±8.8 landings) is reported as 7.0, the “number of mosquitoes landing within 2 minutes on the warm body” value (Aedes aegypti [1]; 1% in ethanol, ethanol control 67.0±8.8 landings) is reported as 2.0 and the “number of mosquitoes landing within 2 minutes on the warm body” value (Aedes aegypti [1]; […] in ethanol, ethanol control 67.0±8.8 landings) is reported as 90.0. The “number … with stimulus” value (Aedes aegypti [2]; 0.0017 µg/L air, without substance 54.1±4.9) was 43.0, the “number … with stimulus” value (Aedes aegypti [2]; 0.017 µg/L air, without substance 54.1±4.9) was 4.0 and the “number … with stimulus” value (Aedes aegypti [2]; 0.17 µg/L air, without substance 54.1±4.9) was 28.0. The “number … with stimulus” value (Aedes aegypti [2]; 1.7 µg/L air, without substance 54.1±4.9) was 0.5, the “number … with stimulus” value (Aedes aegypti [2]; 17 µg/L air, without substance 54.1±4.9) was 0.0 and the “repellence in the arm-in-cage test” value (Aedes aegypti [3]; maintained for more than 4h (FIG. 3)) was “above 75%”.

In the case of `CCC/C=C1\OC(=O)c2ccccc21` [(3Z)-3-butylidene-2-benzofuran-1-one], the “number of mosquitoes landing within 2 minutes on the warm body” value (Aedes aegypti [1]; 0.04% in ethanol, ethanol control 67.1±9.1 landings) is reported as 9.0, the “number of mosquitoes landing within 2 minutes on the warm body” value (Aedes aegypti [1]; 1% in ethanol, ethanol control 67.1±9.1 landings) is reported as 1.0 and the “number of mosquitoes landing within 2 minutes on the warm body” value (Aedes aegypti [1]; […] in ethanol, ethanol control 67.1±9.1 landings) is reported as 54.0. For the same compound, the “number … with stimulus” value (Aedes aegypti [2]; 0.0017 µg/L air, without substance 56.0±3.6) was 59.0, the “number … with stimulus” value (Aedes aegypti [2]; 0.017 µg/L air, without substance 56.0±3.6) was 31.5 and the “number … with stimulus” value (Aedes aegypti [2]; 0.17 µg/L air, without substance 56.0±3.6) was 17.0. For the same compound, the “number … with stimulus” value (Aedes aegypti [2]; 1.7 µg/L air, without substance 56.0±3.6) was 11.0, the “number … with stimulus” value (Aedes aegypti [2]; 17 µg/L air, without substance 56.0±3.6) was 37.0 and the repulsion (Aedes aegypti [2]; doses of 1.7 and/or 17 µg/L in air) was < 90%. It also gave a pest or weed control at 1 µg/cm2, 1 µg/cm2 (Ixodes ricinus) of 77%, a pest or weed control at 5 µg/cm2, 5 µg/cm2 (Ixodes ricinus) of 100% and a pest or weed control at 25 µg/cm2, 25 µg/cm2 (Ixodes ricinus) of 100%. The “tick response compared with the benchmark IR3535” value (Ixodes ricinus) was “greater tick repellency”, the ticks affected (Ixodes ricinus; intermediate dose tested (0.2%)) was “all tested ticks were affected” and the “fraction of the ticks affected” value (Ixodes ricinus; lowest dose tested (0.04%)) was “more than ¾”.

For `CC(C)=CCC/C(C)=C/C=O` [(2E)-3,7-dimethylocta-2,6-dienal], the “number of mosquitoes landing within 2 minutes on the warm body” value (Aedes aegypti [1]; [4]) was 16.0, the “number of mosquitoes landing within 2 minutes on the warm body” value (Aedes aegypti [1]; [5]) was 2.0 and the “number of mosquitoes landing within 2 minutes on the warm body” value (Aedes aegypti [1]; [6]) was 89.0. The “number … with stimulus” value (Aedes aegypti [2]; [7]) was 25.3, the “number … with stimulus” value (Aedes aegypti [2]; [8]) was 15.7 and the “number … with stimulus” value (Aedes aegypti [2]; [9]) was 15.3. The “number … with stimulus” value (Aedes aegypti [2]; [10]) was 14.7, the “number … with stimulus” value (Aedes aegypti [2]; [11]) was 23.0 and the decrease of landings (Aedes aegypti [2]; identical at all concentrations tested) was ~ 67%. It also gave a pest or weed control at 1 µg/cm2, 1 µg/cm2 (Ixodes ricinus) of 15%, a pest or weed control at 5 µg/cm2, 5 µg/cm2 (Ixodes ricinus) of 0% and a pest or weed control at 25 µg/cm2, 25 µg/cm2 (Ixodes ricinus) of 58%.

For `O=c1ccc2ccccc2o1` [chromen-2-one], the “number of mosquitoes landing within 2 minutes on the warm body” value (Aedes aegypti [1]; [4]) was 0.0, the “number of mosquitoes landing within 2 minutes on the warm body” value (Aedes aegypti [1]; [5]) was 1.0 and the “number of mosquitoes landing within 2 minutes on the warm body” value (Aedes aegypti [1]; [6]) was 118.0. The “number … with stimulus” value (Aedes aegypti [2]; [7]) was 36.0, the “number … with stimulus” value (Aedes aegypti [2]; [8]) was 3.0 and the “number … with stimulus” value (Aedes aegypti [2]; [9]) was 10.0. For the same compound, the “number … with stimulus” value (Aedes aegypti [2]; [10]) was 1.0, the “number … with stimulus” value (Aedes aegypti [2]; [11]) was 0.0 and the pest or weed control at 1 µg/cm2, 1 µg/cm2 (Ixodes ricinus) was 27%. For the same compound, the pest or weed control at 5 µg/cm2, 5 µg/cm2 (Ixodes ricinus) was 71%, the pest or weed control at 25 µg/cm2, 25 µg/cm2 (Ixodes ricinus) was 80% and the “tick response compared with the benchmark IR3535” value (Ixodes ricinus) was “response similar to the benchmark IR3535”.
